Ends that are not written are not given here.
Legend:
Erythrocytes = assay: Hemolysis assay; format: cell-based; settings: % of Triton X-100 induced hemolysis; 1 h at 37° C.; peptides 3-60 μM, concentration for table not stated
Experimental: EDTA-blood was centrifuged at 800 g for 10 min, whereafter plasma and buffy coat were removed. The erythrocytes were washed three times and resuspended in 5% PBS, pH 7.4. The cells were then incubated with end-over-end rotation for 1 h at 37° C. in the presence of peptides (3-60 μM). 2% Triton X-100 (Sigma-Aldrich) served as positive control. The samples were then centrifuged at 800 g for 10 min. The absorbance of hemoglobin release was measured at λ 540 nm and is in the plot expressed as % of TritonX-100 induced hemolysis (FIG. 2).

E.coli ATCC 25922 = assay: Radial diffusion assay (RDA), E. coli; format: cell-based, Escherichia coli; settings: zone of bacterial clearance in RDA; unit mm only in FIG. 1 legend, not in Table 2A
Experimental: (§1) Escherichia coli ATCC25922, Pseudomonas aeruginosa ATCC27853, Staphylococcus aureus ATCC29213, Bacillus subtilis ATCC6633 bacterial isolates, and the fungal isolate Candida albicans ATCC90028, were obtained from the Department of Bacteriology, Lund University Hospital.
(§2) Radial diffusion assays (RDA) were performed essentially as described earlier (Lehrer, R. I., Rosenman, M., Harwig, S. S., Jackson, R. & Eisenhauer, P. (1991) Ultrasensitive assays for endogenous antimicrobial polypeptides, J Immunol Methods. 137, 167-73.).
(§3) Briefly, bacteria (E. coli, P. aeruginosa, S. aureus, B. subtilis) or fungi (C. albicans) were grown to mid-logarithmic phase in 10 ml of full-strength (3% w/v) trypticase soy broth (TSB) (Becton-Dickinson, Cockeysville, Md.). The microorganisms were washed once with 10 mM Tris, pH 7.4. 4×10^6 bacterial cfu or 1×10^5 fungal cfu was added to 5 ml of the underlay agarose gel, consisting of 0.03% (w/v) TSB, 1% (w/v) low-electroendoosmosistype (Low-EEO) agarose (Sigma, St Louise Mo.) and a final concentration of 0.02% (v/v) Tween 20 (Sigma). The underlay was poured into a Ø85 mm petri dish. After agarose solidified, 4 mm-diameter wells were punched and 6 μl of test sample was added to each well. Plates were incubated at 37° C. for 3 hours to allow diffusion of the peptides. […]

S.aureus ATCC 29213 = assay: Radial diffusion assay (RDA), S. aureus; format: cell-based, Staphylococcus aureus; settings: zone of bacterial clearance in RDA; unit mm only in FIG. 1 legend, not in Table 2A
Experimental: as §1, §2, §3

[1] = Liposome leakage assay (carboxyfluorescein), PC liposomes; format: biochemical; settings: dioleoylphosphatidylcholine 60 mol %/cholesterol 40 mol % liposomes, scale 100% = Triton X100 release, unit not in table; for CF leakage PC + NaCl: 10 mM Tris pH 7.4, with 150 mM NaCl; for CF leakage PC − NaCl: 10 mM Tris pH 7.4, without NaCl
Experimental: (§4) Dry lipid films were prepared by dissolving either dioleoylphosphatidylcholine (Avanti Polar Lipids, Alabaster, Ala.) (60 mol %) and cholesterol (Sigma, St Louis, Mo.) (40 mol %), or dioleoylphosphatidylcholine (30 mol %), dioleoylphosphatidic acid (Avanti Polar Lipids, Alabaster, Ala.) (30 mol %) and cholesterol (40 mol %) in chloroform, and then removing the solvent by evaporation under vacuum overnight. Subsequently, buffer solution containing 10 mM Tris, pH 7.4, either with or without additional 150 mM NaCl, was added together with 0.1 M carboxyfluorescein (CF) (Sigma, St Louis, Mo.). After hydration, the lipid mixture was subjected to eight freeze-thaw cycles consisting of freezing in liquid nitrogen and heating to 60° C. Unilamellar liposomes with a diameter of about 130 nm (as found with cryo-TEM; results not shown) were generated by multiple extrusions through polycarbonate filters (pore size 100 nm) mounted in a LipoFast miniextruder (Avestin, Ottawa, Canada). Untrapped carboxyfluorescein was then removed by filtration through two subsequent Sephadex G-50 columns with the relevant Tris buffer as eluent. Both extrusion and filtration was performed at 22° C. In the liposome leakage assay, the well known self-quenching of CF was used. Thus, at 100 mM CF is self-quenched, and the recorded fluorescence intensity from liposomes with entrapped CF is low. […] The CF release was determined by monitoring the emitted fluorescence at 520 nm from a liposome dispersion, ([…] in 10 mM Tris pH 7.4). An absolute leakage scale is obtained by disrupting the liposomes at the end of the experiment through addition of 0.8 mM Triton X100 (Sigma, St Louis, Mo.), thereby causing 100% release and dequenching of CF. A SPEX-fluorolog 1650 0.22-m double spectrometer (SPEX Industries, Edison, N.J.) was used for the liposome leakage assay (see Table 3, FIG. 3).

[2] = Liposome leakage assay (carboxyfluorescein), PA liposomes; format: biochemical; settings: dioleoylphosphatidylcholine 30/dioleoylphosphatidic acid 30/cholesterol 40 mol % liposomes, unit not in table; for CF leakage PA + NaCl: 10 mM Tris pH 7.4, with 150 mM NaCl; for CF leakage PA − NaCl: 10 mM Tris pH 7.4, without NaCl
Experimental: as §4

[3] = CD-spectroscopy, helical content; format: physicochemical; settings: 10 mM Tris, pH 7.4, 37° C., peptide 10 μM; for Helical content, PA: PA liposome dispersion; for Helical content, PA / Helical content, PC: lipid 100 μM; for Helical content, PC: PC liposome dispersion; for Helical content, Buffer: buffer only
Experimental: The CD spectra of the peptides in solution were measured on a Jasco J-810 Spectropolarimeter (Jasco, U.K.). The measurements were performed at 37° C. in a 10 mm quartz cuvet under stirring and the peptide concentration was 10 μM. The effect of on peptide secondary structure of liposomes at a lipid concentration of 100 μM was monitored in the range 200-250 nm. The only peptide conformations observed under the conditions investigated were α-helix and random coil. The fraction of the peptide in α-helical conformation, Xα, is calculated from Xα=(A−Ac)/(Aα−Ac) (1)
where A is the recorded CD signal at 225 nm, and Aα and Ac are the CD signal at 225 nm for a reference peptide in 100% α-helix and 100% random coil conformation, respectively. 100% α-helix and 100% random coil references were obtained from 0.133 mM (monomer concentration) poly-L-lysine in 0.1 M NaOH and 0.1 M HCl, respectively. To account for the instrumental differences between measurements the background value (detected at 250 nm, where no peptide signal is present) was subtracted. Signals from the bulk solution were also corrected for (see Table 4).

[4] = Antimicrobial activity stated in text, microorganism not specified; format: cell-based; settings: statement in words, no organism or method given

Compound	Erythrocytes Hemolysis (%) Mean (Erythrocytes) [%]	Bacteria E.coli ATCC 25922 Mean (E.coli ATCC 25922) [mm]	Bacteria S.aureus ATCC 29213 Mean (S.aureus ATCC 29213) [mm]	CF leakage PC + NaCl [1] [%]	CF leakage PC − NaCl [1] [%]	CF leakage PA + NaCl [2] [%]	CF leakage PA − NaCl [2] [%]	Helical content, PA [3] [%]	Helical content, PC [3] [%]	Helical content, Buffer [3] [%]	antimicrobial effect [4]
CC[C@H](C)[C@H](NC(=O)[C@H](CCCCN)NC(=O)[C@H](CCC(=O)O)NC(=O)[C@H](CCCCN)NC(=O)[C@H](CO)NC(=O)[C@H](CCCCN)NC(=O)[C@H](CCCNC(=N)N)NC(=O)[C@H](Cc1ccccc1)NC(=O)[C@H](Cc1ccccc1)NC(=O)[C@H](CC(=O)O)NC(=O)CNC(=O)[C@H](CC(C)C)NC(=O)[C@@H](N)CC(C)C)C(=O)NCC(=O)N[C@@H](CCCCN)C(=O)N[C@@H](CCC(=O)O)C(=O)N[C@@H](Cc1ccccc1)C(=O)N[C@@H](CCCCN)C(=O)N[C@@H](CCCNC(=N)N)C(=O)N[C@H](C(=O)N[C@H](C(=O)N[C@@H](CCC(N)=O)C(=O)N[C@@H](CCCNC(=N)N)C(=O)N[C@H](C(=O)N[C@@H](CCCCN)C(=O)N[C@@H](CC(=O)O)C(=O)N[C@@H](Cc1ccccc1)C(=O)N[C@@H](CC(C)C)C(=O)N[C@@H](CCCNC(=N)N)C(=O)N[C@@H](CC(N)=O)C(=O)N[C@@H](CC(C)C)C(=O)N[C@H](C(=O)N1CCC[C@H]1C(=O)N[C@@H](CCCNC(=N)N)C(=O)N[C@H](C(=O)N[C@@H](CCC(=O)O)C(=O)N[C@@H](CO)C(=O)O)[C@@H](C)O)C(C)C)[C@@H](C)CC)C(C)C)[C@@H](C)CC [LL-37]	16.43	–	–	–	–	–	–	–	–	–	–
CC(C)C[C@H](NC(=O)[C@H](Cc1c[nH]c2ccccc12)NC(=O)[C@H](CCCCN)NC(=O)[C@H](CCCCN)NC(=O)[C@H](CC(C)C)NC(=O)[C@H](CCCNC(=N)N)NC(=O)[C@H](Cc1ccccc1)NC(=O)[C@@H](N)CC(C)C)C(=O)N[C@@H](CCC(N)=O)C(=O)N[C@@H](CCCCN)C(=O)N[C@H](C(=O)N[C@H](C(=O)N[C@@H](CCCCN)C(=O)N[C@@H](CCC(N)=O)C(=O)N[C@@H](Cc1ccccc1)C(=O)NCC(=O)N[C@@H](CCC(=O)O)C(=O)O)[C@@H](C)O)C(C)C [SEQ ID NO:34, LFRIKKWLQKVTKQFGE]	–	6.65	4.75	–	–	–	–	–	–	–	–
CQKRYRGHKITHKMIC (listed as Homo sapiens) [CQK16, FA11_HUMAN aa 545-560]	–	–	–	14 ± 4	64 ± 3	15 ± 2	18 ± 5	8 ± 2	10 ± 2	10 ± 2	–
GKYGIYTKVSRYVNWIKEKTKLT (listed as Homo sapiens) [GKY23, FA9_HUMAN aa 439-461]	–	–	–	19 ± 1	86 ± 7	30 ± 5	86 ± 4	29 ± 2	21 ± 2	7 ± 2	–
LFRLKKWIRKVTRLFG [SEQ ID NO:9, LFRLKKWIRKVTRLFG]	–	11.03	8.59	–	–	–	–	–	–	–	displayed antimicrobial activity
NWRENLDRDIALMKLKKP (listed as Homo sapiens) [NVR18]	–	–	–	0 ± 1	4 ± 1	0 ± 1	2 ± 1	–	–	–	–
SEKTLRKWLKMFKKRQLELY (listed as Homo sapiens) [SEK20]	–	–	–	17 ± 5	98 ± 2	16 ± 1	64 ± 2	38 ± 4	34 ± 4	14 ± 2	–

Reference: patent publication US8076286B2, “Antimicrobial peptides and use thereof” (priority 2006, dated 2011)
